Blank lines part the entries; values can stand above or below the compound they belong to.
How the values were obtained:
[1] = tested on: intrinsic pathway of coagulation; settings: in vitro; cited from earlier work
[2] = in vivo; cited from earlier work
[3] = tested on: blood; settings: contacting blood with the substance; cited from earlier work
[4] = Pharmacokinetic study, single oral dose in rats; format: in vivo; settings: male, Sprague-Dawley; rat, po 11.3 mg/kg, vehicle 10% DMSO/10% cremophor/80% SWFI, plasma
Experimental: A pharmacokinetic study of N-[(2,6-difluoro-3-methoxyphenyl)methyl]-3-(methoxymethyl)-1-({4-[(2-oxopyridin-1-yl)methyl]phenyl}methyl)pyrazole-4-carboxamide was performed to assess the pharmacokinetics following a single oral dose in male Sprague-Dawley rats. Two rats were given a single po dose of 5 mL/kg of a nominal 2 mg/mL (10 mg/kg) composition of test compound in vehicle. Following dosing, blood samples were collected over a period of 24 hours. Sample times were 5, 15 and 30 minutes then 1, 2, 4, 6, 8 and 12 hours. Following collection, blood samples were centrifuged and the plasma fraction analysed for concentration of test compound by LCMS.

[5] = biological target: T1, Human plasma kallikrein (Homo sapiens, UniProt P03952); test: Determination of the IC50 for plasma kallikrein; format: biochemical; settings: 25° C., substrate H-DPro-Phe-Arg-AFC; read-out: IC50 (human PKaI)
T1 construct: purchased Protogen
T1 sequence (P03952 391-638 limits assumed): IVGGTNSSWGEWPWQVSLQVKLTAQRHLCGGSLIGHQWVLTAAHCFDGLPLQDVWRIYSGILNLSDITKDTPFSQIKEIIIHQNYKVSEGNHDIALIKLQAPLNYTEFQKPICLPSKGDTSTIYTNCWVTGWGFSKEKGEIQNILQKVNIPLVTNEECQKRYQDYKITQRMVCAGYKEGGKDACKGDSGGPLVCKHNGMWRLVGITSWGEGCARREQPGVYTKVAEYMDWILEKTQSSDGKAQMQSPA
T1 sequence (P03952 20-390 partner limits assumed): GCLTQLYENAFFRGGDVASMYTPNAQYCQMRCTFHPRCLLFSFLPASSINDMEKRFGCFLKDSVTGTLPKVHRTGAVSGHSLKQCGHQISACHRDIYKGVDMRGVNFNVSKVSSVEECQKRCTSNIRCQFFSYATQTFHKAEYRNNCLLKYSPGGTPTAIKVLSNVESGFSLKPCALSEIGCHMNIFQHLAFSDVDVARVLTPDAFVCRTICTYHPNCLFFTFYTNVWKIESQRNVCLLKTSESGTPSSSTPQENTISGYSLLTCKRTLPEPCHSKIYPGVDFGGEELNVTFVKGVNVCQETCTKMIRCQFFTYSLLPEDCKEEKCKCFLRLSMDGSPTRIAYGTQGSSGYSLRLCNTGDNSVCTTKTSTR
Experimental: Determination of the IC50 for Plasma Kallikrein
(§1) Plasma kallikrein inhibitory activity in vitro was determined using standard published methods (see e.g. Johansen et al., Int. J. Tiss. Reac. 1986, 8, 185; Shori et al., Biochem. Pharmacol., 1992, 43, 1209; Stürzebecher et al., Biol. Chem. Hoppe-Seyler, 1992, 373, 1025). Human plasma kallikrein (Protogen) was incubated at 25° C. with the fluorogenic substrate H-DPro-Phe-Arg-AFC and various concentrations of the test compound. Residual enzyme activity (initial rate of reaction) was determined by measuring the change in […] at 410 nm and the IC50 value for the test compound was determined.

[6] = biological target: T2, Human FXIa (Homo sapiens, UniProt P03951); test: Determination of the % inhibition for FXIa; format: biochemical; settings: 40 μM test compound, 25° C.
T2 construct: purchased Enzyme Research Laboratories
T2 sequence (P03951 388-625 limits assumed): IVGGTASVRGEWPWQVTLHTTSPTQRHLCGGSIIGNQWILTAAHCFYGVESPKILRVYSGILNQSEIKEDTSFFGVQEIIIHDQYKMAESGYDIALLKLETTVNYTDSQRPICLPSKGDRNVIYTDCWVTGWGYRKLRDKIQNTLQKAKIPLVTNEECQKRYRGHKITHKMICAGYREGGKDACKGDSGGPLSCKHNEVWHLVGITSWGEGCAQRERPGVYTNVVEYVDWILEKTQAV
T2 sequence (P03951 19-387 partner limits assumed): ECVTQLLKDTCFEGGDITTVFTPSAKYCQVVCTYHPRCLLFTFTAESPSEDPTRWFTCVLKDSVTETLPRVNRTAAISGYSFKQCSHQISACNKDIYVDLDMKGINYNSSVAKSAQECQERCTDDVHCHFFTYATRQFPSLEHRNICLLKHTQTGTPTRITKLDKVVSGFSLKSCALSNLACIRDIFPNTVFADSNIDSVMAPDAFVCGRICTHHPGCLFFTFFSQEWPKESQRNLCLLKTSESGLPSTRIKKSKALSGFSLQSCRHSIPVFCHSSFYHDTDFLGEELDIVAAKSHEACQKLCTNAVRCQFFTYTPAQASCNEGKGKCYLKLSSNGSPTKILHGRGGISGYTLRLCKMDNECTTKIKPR
Experimental: Determination of the % Inhibition for FXIa
as §1, with “FXIa” for “Plasma kallikrein”, “FXIa (Enzyme Research Laboratories)” for “plasma kallikrein (Protogen)”, “Z-Gly-Pro-Arg-AFC” for “H-DPro-Phe-Arg-AFC”, “40 μM” for “various concentrations”, “nm.” for “nm and the IC50 value for the test compound was determined.”

[7] = biological target: T3, Human KLK1 (Homo sapiens, UniProt P06870); test: Determination of the IC50 for KLK1; format: biochemical; settings: 25° C., substrate H-DVaI-Leu-Arg-AFC
T3 construct: purchased Callbiochem
T3 sequence (P06870 25-262): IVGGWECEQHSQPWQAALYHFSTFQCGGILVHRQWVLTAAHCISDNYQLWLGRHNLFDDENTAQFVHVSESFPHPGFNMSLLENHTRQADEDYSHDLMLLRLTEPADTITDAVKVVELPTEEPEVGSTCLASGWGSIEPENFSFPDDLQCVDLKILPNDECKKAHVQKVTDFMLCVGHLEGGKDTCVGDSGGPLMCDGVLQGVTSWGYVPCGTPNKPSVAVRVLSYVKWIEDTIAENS
Experimental: Determination of the IC50 for KLK1
as §1, with “KLK1” for “Plasma kallikrein”, “KLK1 (Callbiochem)” for “plasma kallikrein (Protogen)”, “H-DVaI-Leu-Arg-AFC” for “H-DPro-Phe-Arg-AFC”

[8] = tested on: LPS-induced disseminated intravascular coagulation; settings: cited from earlier work

Compound: Ecallantide
Contact activated induced coagulation [1]: delay contact activated induced coagulation
Anaphylactic reactions [2]: risks of anaphylactic reactions
Activated clotting time (ACT) [3]: increase in activated clotting time

Cmax [4]: 2890 ng/mL
Tmax [4]: 1 h
IC50 [5]: 4.5 nM
inhibition at 40 µM [6]: 4%
IC50 [7]: > 10000 nM
Compound: COCc1nn(Cc2ccc(Cn3ccccc3=O)cc2)cc1C(=O)NCc1c(F)ccc(OC)c1F [N-[(2,6-difluoro-3-methoxyphenyl)methyl]-3-(methoxymethyl)-1-({4-[(2-oxopyridin-1-yl)methyl]phenyl}methyl)pyrazole-4-carboxamide]

Compound: Cl.NCC1CCC(C(=O)N[C@@H](Cc2ccccc2)C(=O)Nc2ccc(CC(=O)O)cc2)CC1 (stereo partly drawn) [PKSI-527]
Decrease in platelet count and fibrinogen level and increase in FDP level [8]: significantly suppressed

— patent US20200317639A1, “POLYMORPHS OF N-[(2,6-DIFLUORO-3-METHOXYPHENYL)METHYL]-3-(METHOXYMETHYL)-1-({4-[(2-OXOPYRIDIN-1YL)METHYL]PHENYL}METHYL)PYRAZOLE-4-CARBOXAMIDE” (KALVISTA PHARMACEUTICALS LIMITED, priority 2016, published 2020)
